Laboratory results published in patent US9023862B2, “Medicament for the treatment of endometriosis” (Ferring International Center S.A., priority 2007, dated 2015).

Assays:
endometriotic lesions [1] = test: Nude mouse endometriosis model: active lesions, histology (OM, TEM) and morphometry; type: in vivo, mice; settings: for percentage of active lesions: two weeks, control 89.6±5.7%, p=0.0169, mean ± SEM
Description: An experimental animal endometriosis model was developed in nude mice by inserting human endometrium fragments. Female mice (Hsd: Athimic Nude-nu, Harlan Ibérica S. L, Barcelona, Spain) were individually housed in autoclaved cages and bedding, in laminar flow filtered hoods. The animal room was maintained at 26 C with a 12-h light, 12-h dark cycle, and mice were fed ad libitum with autoclaved laboratory rodent chow and acidified water. All handling was performed in laminar flow filtered hoods. A mixture of ketamine/medetomidine (75 μg/g ketamine and 1 μg/g medetomidine) (Ketolar®, Parke-Davis, España; Domtor®, Pfizer, Spain) i.p injected, was used to anesthetize mice before invasive procedures and atipamezole (Antisedan®, SmithKline Beecham, Spain) 1 μg/g i.p injected, to reverse the anesthesia effects, was used after invasive procedures, using sterile instruments.
At the age of 5 weeks, sterile 60-d release capsules containing 18 mg 17β-estradiol (Innovative Research of America, Sarasota, Fla.) were placed sc in the neck of each animal. According to the manufacturer's information, capsules provide continuous release of hormone at serum concentrations of 150-250 pmol/liter, in the range of physiological levels in mice during the estrous cycle. This stable physiological level of estrogen promotes the growth of transplanted human endometrium and avoids intermouse differences related to various stages of the estrous cycle.
Four days after insertion of the estrogen pellet, an entrance was made to the peritoneal cavity in the midline in the lower abdomen to insert fresh human endometrium from ovum pick-up donors. These fragments were stuck by glue (Vetabond®, 3M Animal Care products, USA) to the peritoneum. This protocol allowed to mimic the pathologic situation of retrograde menstruation that occur in women with endometriosis.
(§1) Morphometric study was performed to measure the implants area and cellular density. Immunocytochemistry with Ki-67 (monoclonal IgG1 DAKO Corp., Denmark) antibody was performed in order to evaluate the proliferative activity of the implants. The histopathological and subcellular ultrastructural changes were detected using an optical microscope (OM), transmission electronic microscope (TEM) and histochemical staining. Optical microscopy (OM), transmission electron microscopy (TEM) and morphometry were performed to ascertain the presence of endometrial glands and stroma and study subcellular ultrastructural changes, area of the implants and cellular density.

[2] = system: blood vessels in endometriotic lesions; test: Immunofluorescence (vWF/α-SMA) of new and mature blood vessels in the implants; type: in vivo, mice; settings: low and high dose groups vs control
Description: The anti-angiogenic effects of the dopamine agonists were assessed by immunofluorescence, the antibodies used in confocal microscopy raised against Von Willebrand factor (vWF monoclonal IgG1, DAKO Corp., Denmark) present in endothelial cells and vascular smooth muscle cells (monoclonal IgG2 α-SMA-FITC conjugated de Sigma, St Louis, USA). Blood vessel which are not of new formation, are rounded by a smooth muscle layer which confers maturity to them. Identification of endothelial cells was made employing vWF, whereas mature vessels were identified by α-SMA positive staining. Thus, vWF+/αSMA− blood vessels were considered new or immature, while vWF+/αSMA+ vessels were classified as old or mature blood vessels.
The angiogenic status of the lesions was initially analyzed using immunofluorescence employing antibodies to identify new (vWF+/αSMA−) and old vessels (vWF+/αSMA+) and confocal microscopy (Leica Confocal Software). Immunofluorescence employing antibodies raised against the Von Willebrand factor (vWF) present in endothelial cells and vascular smooth muscle cells (α-SMA) can be used to test the antiangiogenic action Cb2. Blood vessel which are not of new formation, are rounded by a smooth muscle layer which confers maturity to them. Identification of endothelial cells was made employing vWF, whereas mature vessels were identified by α-SMA positive staining. […]

endometriotic lesions [3] = test: Ki-67 immunocytochemistry, proliferative activity of the implants; type: in vivo, mice; settings: both low and high dose groups vs control; P<0.001
Description: as §1
An immunocyto chemistry study using the Ki-67 antibody (i.e. analysing the degree of cellular proliferation employing antibodies against Ki-67) was used to evaluate the proliferative activity of the implants using methods known in the art.

VEGF = test: TaqMan Real-time PCR gene expression in implants: VEGF; type: in vivo, mice; settings: for VEGF relative expression: vehicle 1.2 ± 0.3, Mean ± SD
From the text: (§2) TaqMan Real-time PCR and 2^−ΔΔCt methods were used to analyze the gene expression profiles of three different markers that promote angiogenesis (VEGF, VEGFR-2, Notch-4); Angiopoietin-1 (Ang-1), an antiangiogenesis marker which promotes the enlargement of existing vessels and resistance to leakage; and Wnt-1.
(§3) TaqMan Real-time PCR and 2^−ΔΔCt methods were used to analyze the gene expression profiles of three different markers that promote angiogenesis (VEGF, VEGFR-2, Notch-4); Angiopoietin-1 (Ang-1), an antiangiogenesis marker which promotes the enlargement of existing vessels and resistance to leakage; and Wnt-1. The housekeeping 18S rRNA was used to normalize the target gene Ct values. The Ct value in each group was expressed relative to the control group Ct values (calibrator), to calculate the relative expression by the 2^−ΔΔCt method. cDNA obtained from sarcoma 180 tumor cells (S-180) and human umbilical vein endothelial cells (HUVEC) was used as negative and positive control, respectively, for the VEGF and VEGFR-2 gene expression. Spleen was used as positive control for Ang-1 and Wnt-1, and lung was employed as a Notch-4 positive control.

VEGFR-2 (KDR) = test: TaqMan Real-time PCR gene expression in implants: VEGFR-2 (KDR); type: in vivo, mice; settings: for VEGFR-2 (KDR) relative expression: vehicle 1.0 ± 0.1, Mean ± SD
From the text: as §2, §3

Notch-4 = test: TaqMan Real-time PCR gene expression in implants: Notch-4; type: in vivo, mice; settings: for Notch-4 relative expression: vehicle 1.0 ± 0.1, Mean ± SD
From the text: as §2, §3

Ang-1 = test: TaqMan Real-time PCR gene expression in implants: Ang-1; type: in vivo, mice; settings: for Ang-1 relative expression: vehicle 1.1 ± 0.2, Mean ± SD
From the text: as §2, §3

Wnt-1 = test: TaqMan Real-time PCR gene expression in implants: Wnt-1; type: in vivo, mice; settings: for Wnt-1 relative expression: vehicle 1.0 ± 0.1, Mean ± SD
From the text: as §2, §3

[4] = mouse, in vivo
From the text: (§4) Three weeks after implantation the animals were split into three groups. […] Two weeks after treatment the animals were sacrificed and the endometriotic lesions sampled and analysed as set out below.

[5] = Toxicity in the nude mouse endometriosis study; settings: 0.05 and 0.1 mg/kg/day oral, two weeks
From the text: as §4

[6] = low and high dose groups, p <0.05

Structure (SMILES): C=CCN1C[C@H](C(=O)N(CCCN(C)C)C(=O)NCC)C[C@@H]2c3cccc4[nH]cc(c34)C[C@H]21 [cabergoline]
- ratio glands/stroma (morphometry) (endometriotic lesions [1]; both low (0.05 mg/kg/day) and high (0.1 mg/kg/day) doses vs controls, p<0.05): more stroma and less glands than the controls
- cellular density (morphometry) (endometriotic lesions [1]; control, low and high dose groups): no statistical difference among groups
- histology of treated lesions (OM and TEM) (endometriotic lesions [1]; high and low dose): a lax stroma, with lost cellularity and organization
- percentage of active lesions (endometriotic lesions [1]; high dose 0.1 mg/kg/day oral): 60.4±8.4%
- percentage of active lesions (endometriotic lesions [1]; low dose 0.05 mg/kg/day oral): 58.6±9.7%
- new blood vessel formation (angiogenesis) [2]: significantly reduced new blood vessel formation
- proliferation (Proliferation Index, Ki-67 positive cells) (endometriotic lesions [3]): decrease in proliferation
- VEGF relative expression (VEGF; HIGH DOSE (0.1 mg/kg/day)): 0.4 ± 0.1
- VEGF relative expression (VEGF; LOW DOSE (0.05 mg/kg/day)): 0.5 ± 0.2
- VEGF expression in endometrial implants (VEGF; increasing doses (control, 0.05, 0.1 mg/kg/day), FIG. 6a): trend towards decreased VEGF expression
- Expression of VEGF in treated groups vs vehicle (VEGF; [6]): Downregulated
- VEGFR-2 (KDR) relative expression (VEGFR-2 (KDR); HIGH DOSE (0.1 mg/kg/day)): 0.3 ± 0.1
- VEGFR-2 (KDR) relative expression (VEGFR-2 (KDR); LOW DOSE (0.05 mg/kg/day)): 0.4 ± 0.1
- Expression of VEGFR-2 (KDR) in treated groups vs vehicle (VEGFR-2 (KDR); [6]): Downregulated
- Notch-4 relative expression (Notch-4; HIGH DOSE (0.1 mg/kg/day)): 0.4 ± 0.1
- Notch-4 relative expression (Notch-4; LOW DOSE (0.05 mg/kg/day)): 0.5 ± 0.1
- Expression of Notch-4 in treated groups vs vehicle (Notch-4; [6]): Downregulated
- Ang-1 relative expression (Ang-1; HIGH DOSE (0.1 mg/kg/day)): 3.7 ± 0.6
- Ang-1 relative expression (Ang-1; LOW DOSE (0.05 mg/kg/day)): 3.2 ± 0.6
- Expression of Ang-1 in treated groups vs vehicle (Ang-1; [6]): Upregulated
- Wnt-1 relative expression (Wnt-1; HIGH DOSE (0.1 mg/kg/day)): 3.3 ± 0.6
- Wnt-1 relative expression (Wnt-1; LOW DOSE (0.05 mg/kg/day)): 3.4 ± 0.2
- Expression of Wnt-1 in treated groups vs vehicle (Wnt-1; low and high dose groups, p =0.07): Upregulated
- body weight of the mice in the different treatment groups [4]: not significantly different
- mortality following administration [5]: No mice in the study died
